This note sets out measurements from patent publication US5521163A, “Antiviral pyrimidine nucleosides and methods for using same” (University of Birmingham, priority 1994, dated 1996).

Where only a bound is given, the exact number is not on record here.

One assay concerns HSV2. Briefly: Plaque reduction assay, HSV-2 (strain 186) in cell monolayers. It is filed as cell-based, Herpes Simplex Virus type 2. The note with it: Human alphaherpesvirus 2, Table 1; β-anomers; HSV-2 strain 186, plaque reduction. As for the experimental part: (§1) Herpes Simplex Virus types 1 (HSV 1) and 2 (HSV2) were assayed in monolayers of Veto cells in multiwell trays. The virus strains used were SC16 and 186 for HSV-1 and HSV-2 respectively. Activity of compounds was determined in the plaque reduction assay, in which a cell monolayer was infected with a suspension of the appropirate HSV, and then overlaid with nutrient agarose in the form of a gel to ensure that there was no spread of virus throughout the culture. A range of concentrations of compound of known molarity was incorporated in the nutrient agarose overlay. Plaque numbers at each concentration were expressed as percentages of the control and a dose-response curve was drawn. From this curve the 50% inhibitory concentration (IC50) was estimated to be 0.66 μm for the compound of formula (I) in which X represents a 2-bromovinyl group.

The next assay has as its system HSV1. Briefly: Plaque reduction assay, HSV-1 (strain SC16) in cell monolayers. The assay is classed as cell-based, Herpes Simplex Virus type 1. The settings on record: Human alphaherpesvirus 1, SC16, Table 1; β-anomers; HSV-1 strain SC16, plaque reduction. The protocol: as §1
For the next assay, the system named is Herpes Simplex Virus. The assay is described as follows: Plaque reduction assay, HSV (type not given). The assay is classed as cell-based, Herpes Simplex Virus types 1 (HSV 1) and 2 (HSV2). The note with it: read-out: 50% inhibitory concentration (IC50). The protocol:
as §1

In the next assay the test system is VZV. Briefly: Plaque reduction assay, VZV clinical isolates in MRC-5 cells. The note with it: read-out: IC50 VZV, Table 1, β-anomers. It is filed as cell-based, varicella zoster virus. As for the experimental part: Clinical isolates of varicella zoster virus (VZV) were assayed in monolayers of MRC-5 cells. MRC-5 cells are derived from human embyonic lung tissue. A plaque reduction assay was used in which a suspension of the virus stock was used to infect monolayers of the cells in multiwell trays. a range of concentrations of the compound under test of known molarity was added to the wells. Plaque numbers at each concnetration were expressed as percentages of the control and a dose response curve was constructed. From these curves the 50% inhibitory concentration of each drug was determined.

For the compound `O=c1[nH]c(=O)n([C@H]2C[C@H](O)[C@@H](CO)S2)cc1/C=C/Br` [X=CH=CHBr, Y=OH, E-5-(2-bromovinyl)-2'-deoxy-4'-thiouridine], the values for the IC50 in the assay with HSV2, with HSV1 and in the assay with Herpes Simplex Virus were 10000 to 100000 nM, 600 nM and 660 nM, respectively. For `Nc1nc(=O)n([C@H]2C[C@H](O)[C@@H](CO)S2)cc1/C=C/Br` [X=CH=CHBr, Y=NH2, 2'-Deoxy-5-E-(2-bromovinyl)-4'-thiocytidine], the IC50 in the assay with HSV2 was greater than 10000 nM. On to `CCc1cn([C@H]2C[C@H](O)[C@@H](CO)S2)c(=O)[nH]c1=O` [X=CH2 CH3, Y=OH, 2'-Deoxy-5-ethyl-4'-thiouridine], for which the IC50 with VZV was determined as 990 nM.
